Patent US10092002B2, “Herbicidal composition comprising nicosulfuron or its salt and S -metolachlor or its salt” (ISHIHARA SANGYO KAISHA, LTD., priority 2011, dated 2018)

Assays:
Assay type in all cases: in vivo
[1] = system: common cocklebur (Xanthium strumarium L.); experiment: Test Example 1: foliar treatment of common cocklebur in pots, visual growth inhibition rate; details: foliar treatment at 4.3 to 4.8-leaf stage, 22nd day after treatment
Source text: When the herbicidal activity in a case where two active ingredients are combined, is larger than the simple sum of the respective herbicidal activities of the two active ingredients (the expected activity), it is called a synergistic effect. The activity expected by the combination of two active ingredients can be calculated as follows (Colby S. R., “Weed”, vol. 15, p. 20-22, 1967). E1=α+β-(α×β÷100) In a case where three active ingredients are combined, the activity can be similarly calculated as follows. […] Upland field soil was put into a 1/1,000,000 ha pot, and seeds of common cocklebur (Xanthium strumarium L.) were sown. […] Dual Gold, manufactured by Syngenta Crop Protection AG), SC agent containing terbuthylazine as an active ingredient (tradename: Click, manufactured by BASF), SC agent containing mesotrione as an active ingredient (tradename: Callisto, manufactured by Syngenta Crop Protection AG) and WG agent containing prosulfuron as an active ingredient (tradename: Peak, manufactured by Syngenta Crop Protection AG) were diluted with water in an amount corresponding to 1,000 Uha, and applied for foliar treatment by a small sprayer. On the 22nd day after treatment, the state of growth of the common cocklebur was visually observed to determine the growth inhibition rate in accordance with the following evaluation standard. The growth inhibition rate (%) (measured value) and the growth inhibition rate (%) (calculated value) calculated by the Colby's formula are shown in Table 1.

[2] = system: annual bluegrass (Poa annua L.) having lowered sensitivity to herbicides; experiment: Test Example 8: foliar treatment of annual bluegrass having lowered sensitivity to herbicides, visual growth inhibition rate; details: foliar treatment at 5 to 6-leaf stage, 14th day after treatment
Source text: When the herbicidal activity in a case where two active ingredients are combined, is larger than the simple sum of the respective herbicidal activities of the two active ingredients (the expected activity), it is called a synergistic effect. The activity expected by the combination of two active ingredients can be calculated as follows (Colby S. R., “Weed”, vol. 15, p. 20-22, 1967). E1=α+β−(α×β÷100)
Growth inhibition rate (%)=0 (equivalent to the non-treated area) to 100 (complete kill)
Upland field soil was put into a 1/1,000,000 ha pot, and seeds of annual bluegrass (Poa annua L.) having lowered sensitivity to herbicides were sown. When the annual bluegrass reached 5 to 6-leaf stage, predetermined amounts of ONEHOPE NYUZAI (tradename) and Dual Gold (tradename) were diluted with water (corresponding to 300 L/ha) and applied for foliar treatment by a small sprayer.
The growth inhibition rate (%) (measured value) and the growth inhibition rate (%) calculated in the same manner as in Test Example 1 are shown in Table 9.

[3] = system: summergrass (Digitaria ciliaris (Retz.) Koel); experiment: Test Example 5: foliar treatment of summergrass in 7 to 9-leaf stage, visual growth inhibition rate; details: foliar treatment at 7 to 9-leaf stage, 14th day after treatment
Source text: When the herbicidal activity in a case where two active ingredients are combined, is larger than the simple sum of the respective herbicidal activities of the two active ingredients (the expected activity), it is called a synergistic effect. The activity expected by the combination of two active ingredients can be calculated as follows (Colby S. R., “Weed”, vol. 15, p. 20-22, 1967). E1=α+β-(α×β÷100) On the 22nd day after treatment, the state of growth of the common cocklebur was visually observed to determine the growth inhibition rate in accordance with the following evaluation standard. The growth inhibition rate (%) (measured value) and the growth inhibition rate (%) (calculated value) calculated by the Colby's formula are shown in Table 1. […] Upland field soil was put into a 1/1,000,000 ha pot, and seeds of summergrass (Digitaria ciliaris (Retz.) Koel) were sown. When the summergrass reached 7 to 9-leaf stage, predetermined amounts of […] Dual Gold (tradename) were diluted with water (corresponding to 300 L/ha) and applied for foliar treatment by a small sprayer. On the 14th day after treatment, the state of growth of the summergrass was visually observed to determine the growth inhibition rate.

[4] = system: green kyllinga (Kyllinga brevifolia Rottb. var. leiolepis) having lowered sensitivity to herbicides; experiment: Test Example 6: foliar treatment of green kyllinga having lowered sensitivity to herbicides, visual growth inhibition rate; details: foliar treatment at height 5 to 7 cm, 21st day after treatment
Source text: When the herbicidal activity in a case where two active ingredients are combined, is larger than the simple sum of the respective herbicidal activities of the two active ingredients (the expected activity), it is called a synergistic effect. The activity expected by the combination of two active ingredients can be calculated as follows (Colby S. […] E1=α+β-(α×β÷100) On the 22nd day after treatment, the state of growth of the common cocklebur was visually observed to determine the growth inhibition rate in accordance with the following evaluation standard. The growth inhibition rate (%) (measured value) and the growth inhibition rate (%) (calculated value) calculated by the Colby's formula are shown in Table 1. […] Upland field soil was put into a 1/1,000,000 ha pot, and rhizomes of green […] brevifolia Rottb. var. leiolepis) having lowered sensitivity to herbicides were planted. When the height of green […] reached 5 to 7 cm, predetermined amounts of […] Dual Gold (tradename) were diluted with water (corresponding to 300 Uha) and applied for foliar treatment by a small sprayer. On the 21st day after treatment, the state of growth of the green […] visually observed to determine the growth inhibition rate.

[5] = system: Japanese millet (Echinochloa utilis Ohwi et Yabuno); experiment: Test Example 2: soil treatment, Japanese millet, visual growth inhibition rate; details: soil treatment the day after sowing, 27th day after treatment
Source text: When the herbicidal activity in a case where two active ingredients are combined, is larger than the simple sum of the respective herbicidal activities of the two active ingredients (the expected activity), it is called a synergistic effect. The activity expected by the combination of two active ingredients can be calculated as follows (Colby S. R., “Weed”, vol. 15, p. 20-22, 1967). E1=α+β−(α×β÷100) On the 22nd day after treatment, the state of growth of the common cocklebur was visually observed to determine the growth inhibition rate in accordance with the following evaluation standard. The growth inhibition rate (%) (measured value) and the growth inhibition rate (%) (calculated value) calculated by the Colby's formula are shown in Table 1. […] Upland field soil was put into a 1/1,000,000 ha pot, and seeds of Japanese millet (Echinochloa utilis Ohwi et Yabuno) were sown. […] On the 27th day after treatment, the state of growth of the Japanese millet was visually observed to determine the growth inhibition rate.

Compound: COc1cc(OC)nc(NC(=O)NS(=O)(=O)c2ncccc2C(=O)N(C)C)n1 [Nicosulfuron, 2-(4,6-dimethoxypyrimidin-2-ylcarbamoylsulfamoyl)-N,N-dimethylnicotinamide]
- inhibition at 30 g/ha ([1]; Xanthium strumarium, dose 30 g/ha, read-out: Growth inhibition rate (%) of common cocklebur, Measured value): 0%
- inhibition at 100 g/ha ([2]; Poa annua, dose 100 g/ha, read-out: Growth inhibition rate (%) of annual bluegrass, Measured value): 87%
- inhibition at 15 g/ha ([3]; Digitaria ciliaris, dose 15 g/ha, read-out: Growth inhibition rate (%) of summergrass, Measured value): 53%
- inhibition at 30 g/ha ([4]; Cyperus brevifolius, dose 30 g/ha, read-out: Growth inhibition rate (%) of green kyllinga, Measured value): 20%
- inhibition at 100 g/ha ([4]; Cyperus brevifolius, dose 100 g/ha, read-out: Growth inhibition rate (%) of green kyllinga, Measured value): 40%
- inhibition at 15 g/ha ([5]; dose 15 g/ha, read-out: Growth inhibition rate (%) of Japanese millet, Measured value): 5%

Compound: a mixture of (aRS,1S)-2-chloro-6′-ethyl-N-(2-methoxy-1-methylethyl)aceto-o-toluidide (80 to 100%) and (aRS,1R)-2-chloro-6′-ethyl-N-(2-methoxy-1-methylethyl)aceto-o-toluidide (20 to 0%) [S-metolachlor]
- Growth inhibition rate (%) of common cocklebur, Measured value ([1]; dose 1000 g/ha): 0%
- Growth inhibition rate (%) of annual bluegrass, Measured value ([2]; dose 1000 g/ha): 18%
- Growth inhibition rate (%) of annual bluegrass, Measured value ([2]; dose 2000 g/ha): 28%
- Growth inhibition rate (%) of summergrass, Measured value ([3]; dose 500 g/ha): 0%
- Growth inhibition rate (%) of summergrass, Measured value ([3]; dose 2000 g/ha): 0%
- Growth inhibition rate (%) of green kyllinga, Measured value ([4]; dose 500 g/ha): 15%
- Growth inhibition rate (%) of green kyllinga, Measured value ([4]; dose 1000 g/ha): 45%
- Growth inhibition rate (%) of Japanese millet, Measured value ([5]; dose 500 g/ha): 80%
